Results from the pKa sets of Baltruschat and Czodrowski (2020).
Where a SMILES comes first, the peptide text is derived from it. [ ]: non-standard residue; d: D form. pGlu = O=C1CC[C@@H](C(=O)O)N1

conditions: acidic group

For `N#CO`, which pKa is on record?
The pKa was 3.67.

With `S=CNc1cccc(Cl)c1` as the compound, how does the pKa read?
The pKa was 10.8.

For `CC(C)(C(=O)O)C(C(N)=O)c1ccccc1` (configuration not stated), which pKa is on record?
The pKa was 4.8.

With `Nc1ccc(S(=O)(=O)Nc2ccc(Br)nc2)cc1` as the compound, how does the pKa read?
The pKa was 7.12.

With `Cc1c(Cn2cc[nH+]c2)oc2ccc(C(=O)O)cc12` as the compound, how does the pKa read?
The pKa was 3.91.

Which pKa does the source give for `CCO/C(C)=N/O` here?
The pKa was 11.4.

With `O=C(O)CC[C@@H]1NC(=O)CNC1=O` as the compound, how does the pKa read?
The pKa was 4.36.

For `CC(C)COc1ccc(C(=O)O)cc1`, which pKa is on record?
The pKa was 4.48.

With `CC(C)(S)C(C(=O)O)n1cc[nH+]c1Cc1ccccc1` (configuration not stated) as the compound, how does the pKa read?
The pKa was 1.8.

Which pKa does the source give for `NC1=[NH+][C@H]2C[C@@H](N1)[NH2+][C@@H]2C(=O)O` here?
The pKa was 1.3.

For `Oc1nc2cc3c(cc2[nH]1)CCCC3`, which pKa is on record?
Its pKa is 12.2.

For `Cc1ccc(S(=O)(=O)NCCC(N)=[NH2+])cc1`, which pKa is on record?
The pKa was 9.49.

With `CC(=O)C(Cc1ccc([N+](=O)[O-])cc1)C(C)=O` as the compound, how does the pKa read?
Its pKa is 9.54.

Which pKa does the source give for `CC(=O)C(C)C(=O)C(C)C` (configuration not stated) here?
The pKa was 11.8.

With `CCCCCCC(=O)NO` as the compound, how does the pKa read?
Its pKa is 9.62.

With `COc1cccc(/C=C/C(=O)O)c1` as the compound, how does the pKa read?
The pKa was 4.38.

With `CC(=O)N(c1ccccc1)c1nnc(S(N)(=O)=O)s1` as the compound, how does the pKa read?
The pKa was 7.32.

Which pKa does the source give for `COc1ccc(CC(C(C)=O)C(C)=O)cc1` here?
The pKa was 10.6.

Which pKa does the source give for `CCCCCCCCCC(=O)O` here?
Its pKa is 4.89.

Which pKa does the source give for `O=C(O)C#CCl` here?
Its pKa is 1.89.

Which pKa does the source give for `On1nnc2ccc(C(F)(F)F)cc21` here?
The pKa was 3.97.

For `C[C@H]1CC[C@H]2[C@H](C)CC[C@@H](C(=O)O)[NH+]2C1`, which pKa is on record?
The pKa was 2.

Which pKa does the source give for `CNC(=N)CCNS(=O)(=O)c1ccc(C)cc1` here?
The pKa was 11.9.

Which pKa does the source give for `C[N+]1(CCCCC(=O)O)CCCCC1` here?
The pKa was 4.33.

With `C#CCCC(=O)O` as the compound, how does the pKa read?
Its pKa is 4.2.

For `CC(C)=CC(=O)/C=N/O`, which pKa is on record?
The pKa was 8.9.

For `CC(=O)NO`, which pKa is on record?
Its pKa is 9.07.

For `c1ccc(-c2nnn[nH]2)cc1`, which pKa is on record?
The pKa was 4.03.

With `O=C(O)/C=C\c1ccc(O)cc1` as the compound, how does the pKa read?
Its pKa is 4.08.

With `Cn1c(=O)ccc2ccccc21` as the compound, how does the pKa read?
The pKa was -0.71.

For `C/C(C#[N+][O-])=N\O`, which pKa is on record?
Its pKa is 8.8.

Which pKa does the source give for `O=C1CSC(=S)N1` here?
The pKa was 6.48.

For `[NH3+][C@H]1CC(=O)NC1=O`, which pKa is on record?
Its pKa is 5.9.

For `O=C(O)CC1NC(=O)c2ccccc2O1` (configuration not stated), which pKa is on record?
The pKa was 4.9.

With `O=C([O-])c1ccc([N+](=O)[O-])cc1O` as the compound, how does the pKa read?
Its pKa is 10.3.

Which pKa does the source give for `CC(O)c1cccc(O)c1CO` (configuration not stated) here?
The pKa was 9.9.

Which pKa does the source give for `O=C1CCCCC1=O` here?
Its pKa is 10.3.

With `CCCC(C)C1(CC)C(=O)N=C([O-])NC1=O` (configuration not stated) as the compound, how does the pKa read?
Its pKa is 12.4.

With `O=C(O)C[Se]c1ccccc1[N+](=O)[O-]` as the compound, how does the pKa read?
Its pKa is 3.45.

With `N#CC(C#N)=C(C#N)Nc1ccc(C(=O)O)cc1` as the compound, how does the pKa read?
The pKa was 4.2.

With `[NH3+]Cc1ccc(F)c(O)c1` as the compound, how does the pKa read?
Its pKa is 8.

With `C[C@H](NC(=O)[C@H](CCC(N)=O)NC(=O)[C@@H]1CCC(=O)N1)C(=O)O` ([pGlu]-Gln-Ala-OH) as the compound, how does the pKa read?
Its pKa is 3.67.

For `O=C(O)C1CC1(Cl)Cl` (configuration not stated), which pKa is on record?
The pKa was 3.51.

For `CCC(=O)CC(=O)CC`, which pKa is on record?
The pKa was 9.82.

With `Clc1cccc(-c2nnn[nH]2)c1` as the compound, how does the pKa read?
The pKa was 3.61.

Which pKa does the source give for `CC[NH+]1CCC[C@@H]1CNC(=O)c1c(O)c(Br)cc(Br)c1OC` here?
The pKa was 5.88.

With `Oc1ccc2nnccc2c1` as the compound, how does the pKa read?
Its pKa is 7.52.

Which pKa does the source give for `NC(=S)c1ccc([N+](=O)[O-])cc1` here?
Its pKa is 11.8.

With `C[S+](C)c1ccc(O)cc1` as the compound, how does the pKa read?
The pKa was 7.31.

With `COc1cc(C=O)ccc1O` as the compound, how does the pKa read?
The pKa was 7.38.

With `C[n+]1ccn(CCC[n+]2ccc(/C=N/O)cc2)c1` as the compound, how does the pKa read?
Its pKa is 8.05.

With `CC(C(=O)O)C(C#N)c1ccccc1` (configuration not stated) as the compound, how does the pKa read?
Its pKa is 3.7.

With `O=C1O[C@@H]([C@@H](O)CO)C(O)=C1O` as the compound, how does the pKa read?
Its pKa is 4.16.

With `Cc1ccc2[nH]nnc2c1` as the compound, how does the pKa read?
Its pKa is 8.9.

For `CC(=O)N(C)c1nnc(S(N)(=O)=O)s1`, which pKa is on record?
The pKa was 7.4.

Which pKa does the source give for `[NH3+]CCc1nnn[nH]1` here?
Its pKa is 3.99.

Which pKa does the source give for `O=S(O)c1ccccc1` here?
The pKa was 1.72.

With `CC(C)[C@H](C(=O)O)N1C[C@H](NC(=O)Cc2ccccc2)C1=O` as the compound, how does the pKa read?
The pKa was 3.48.

For `Cc1ccc(C)c(O)c1`, which pKa is on record?
Its pKa is 10.4.

For `CN(C)C(=S)OCC(=O)O`, which pKa is on record?
The pKa was 2.87.

Which pKa does the source give for `CC(O)=C(C#N)C#N` here?
Its pKa is 1.

Which pKa does the source give for `C/C(=N\O)c1ccccc1` here?
Its pKa is 11.3.

With `CC(C)(OO)c1ccccc1` as the compound, how does the pKa read?
The pKa was 12.6.

With `CCN(CC)S(=O)(=O)c1ccccc1C(=O)O` as the compound, how does the pKa read?
Its pKa is 2.96.

Which pKa does the source give for `CCC1C(=O)C=C(C)OC1=O` (configuration not stated) here?
Its pKa is 5.3.

For `Cc1ccc(C(=S)Nc2ccc(Br)cc2)cc1`, which pKa is on record?
Its pKa is 10.8.

Which pKa does the source give for `Sc1cnc2ccccc2c1` here?
The pKa was 6.13.

Which pKa does the source give for `O=[N+]([O-])c1ccc(B(O)O)cc1` here?
The pKa was 7.15.

Which pKa does the source give for `O=c1ccc2ccc(O)c(O)c2o1` here?
Its pKa is 6.9.

For `CCCC(C(CC)CO)C(CC)C(=O)O` (configuration not stated), which pKa is on record?
The pKa was 4.78.

With `CC(C)C(Br)C(=O)O` (configuration not stated) as the compound, how does the pKa read?
The pKa was 2.82.

Which pKa does the source give for `O=C([O-])[C@@H](P)CC[C@H](P)C(=O)O` here?
The pKa was 4.41.

For `Cc1cc(Nc2ccc([O-])cc2)c(C(C)C)cc1O`, which pKa is on record?
The pKa was 10.7.

With `O=C(O)c1ccoc1` as the compound, how does the pKa read?
The pKa was 3.94.

With `O=C(Oc1cccc([N+](=O)[O-])c1)C1c2ccccc2-c2ccccc21` as the compound, how does the pKa read?
Its pKa is 9.84.

With `C[NH+](C)Cc1cccc(NC(=O)/C=N/O)c1` as the compound, how does the pKa read?
Its pKa is 8.28.

For `Cc1cccc(C)c1O`, which pKa is on record?
The pKa was 10.6.

Which pKa does the source give for `Cc1ccccc1NC(=S)c1ccccc1` here?
The pKa was 10.2.

Which pKa does the source give for `O=C(C1=C(O)C(=O)c2ccccc2C1=O)c1ccccc1` here?
Its pKa is 2.17.

With `CC[NH2+]CCCC(=O)O` as the compound, how does the pKa read?
Its pKa is 3.92.

Which pKa does the source give for `CCc1c(-c2ccccc2)nn(-c2ccccc2)c1O` here?
The pKa was 8.

same assay, conditions: basic group

Which pKa does the source give for `CCC(=O)C(c1ccccc1)(c1ccccc1)[C@@H](C)CN(C)C` here?
Its pKa is 8.07.

For `CCc1cc(C)nnc1C`, which pKa is on record?
The pKa was 4.73.

For `CC1CCNC(C)(C)C1` (configuration not stated), which pKa is on record?
Its pKa is 11.1.

Which pKa does the source give for `COc1ccc(N(C)CO)cc1` here?
The pKa was 4.59.

For `Cc1ccncc1`, which pKa is on record?
Its pKa is 6.15.

With `c1ccc(-c2ccnc3c2ccc2cccnc23)cc1` as the compound, how does the pKa read?
The pKa was 4.9.
